The record followed here is patent publication US9334267B2, “RAF inhibitor compounds” (Deciphera Pharmaceuticals, LLC, priority 2012, dated 2016).

One test deals with HCT-116 cells. Put plainly: HCT-116 cell proliferation assay (resazurin). The format is cell-based. The conditions noted are these: Homo sapiens, K-Ras mutation B-Raf wild type, read-out: Cell Proliferation Inhibition IC50, nM HCT-116.
For another test, the target named is T1, human wild type C-Raf (Homo sapiens, UniProt P04049).
T1 construct: made in house
Put plainly: Enzymatic assay of C-Raf kinase activity (Raf/MEK1 ATPase, coupled PK/LDH, A340). The conditions noted are these: read-out: Enzyme IC50, nM C-Raf. The class given is biochemical. On the procedure: Test compounds are evaluated for their inhibitory activities against one or more of human wild type B-Raf, human wild type C-Raf, human B-Raf V600E, human B-Raf V600E+T529I or human B-Raf V600E+G468A. T529I is a threonine to isoleucine B-Raf gatekeeper mutation and G468A is a B-Raf secondary mutation at G1403C in exon 11. The enzymatic assays of B-Raf, C-Raf and B-Raf mutations evaluate a property of Raf and MEK1 complex, which in the presence of ATP, catalyzes an enhanced ATP hydrolysis (Rominger, et al, Arch. Biochem. Biophys. 2007, 464: 130-137; US Patent Publication No. 2006/0211073). The ADP formed is monitored by the well-known coupled PK/LDH (pyruvate kinase/lactate dehydrogenase) system in the form of NADH oxidation, which can be monitored and detected spectrophotometrically by absorbance at 340 nm (A340; for principal of the method see Schindler et al, Science, 2000, 289: 1938-1942). Raf activated MEK1 ATPase activity is a property shared by all forms of Raf proteins.
Test compounds are evaluated for their inhibitory activities against one or more of wild type B-Raf, wild type C-Raf, B-Raf V600E, B-Raf V600E+T529I and B-Raf V600E+G468A. T529I is a B-Raf gatekeeper mutation and G468A is a B-Raf secondary mutation. The enzymatic assays of B-Raf, C-Raf and B-Raf mutations evaluate a property of Raf and MEK1 complex, which in the presence of ATP, catalyzes an enhanced ATP hydrolysis (Rominger, et al, Arch. Biochem. Biophys. 2007, 464: 130-137). The ADP formed is monitored by the well-known coupled PK/LDH (pyruvate kinase/lactate dehydrogenase) system in the form of NADH oxidation, which can be monitored and detected by absorbance at 340 nm (A340; for principal of the method see Schindler et al, Science, 2000, 289: 1938-1942). Raf activated MEK1 ATPase activity is a property shared by all forms of Raf proteins. In the B-Raf wild type enzymatic assay, the reaction mixture contains 1.2 nM B-Raf, 30 nM MEK1, 1000 uM ATP, 3.5 units (per 100 ul) of PK, 5 units (per 100 ul) of LDH, 1 mM phosphoenol pyruvate (PEP), and 280 uM of NADH. In the C-Raf assay, the reaction mixture contains 0.6 nM C-Raf, 26 nM MEK1, 2000 uM ATP, and the same amount of PK, LDH, PEP and NADH as above. In the B-Raf V600E assay, the reaction mixture contains […] B-Raf V600E, 26 nM MEK1, 200 uM ATP and the same amount of PK, LDH, PEP and NADH as above. In the B-RafV600E+T529I assay, the reaction mixture contains 6.2 nM B-Raf V600E+T529I, 30 nM MEK1, 200 uM ATP and the same amount of PK, LDH, PEP and NADH as above. In the B-Raf V600E+G468A assay, the reaction mixture contains 3.5 nM B-Raf, 30 nM MEK1, 200 uM ATP and the same amount of PK, LDH, PEP and NADH as above. All assays are started by mixing the above mixture with test compound and monitoring at A340 continuously for approximately 5 hr. […] In the aforementioned assays, the enzyme constructs can be screened prior to or after cleavage of the N-terminal purification tag.

For a further test, the target named is T2, human wild type c-KIT (Homo sapiens, UniProt P10721).
T2 construct: GST (N); made in house
Put plainly: Enzymatic assay of c-Kit kinase activity (poly E4Y phosphorylation, coupled PK/LDH). The format is biochemical. The text has this: c-Kit is an important oncogene, and its overexpression and genetic mutations often occur in melanoma and gastrointestinal stromal tumor (GIST) patients. In the c-Kit enzymatic assay, the phosphorylation of poly E4Y by ATP catalyzed by human c-Kit is monitored spectrophotometrically. The ADP produced from the kinase reaction is coupled to pyruvate kinase/lactate dehydrogenase (PK/LDH) reactions where NAD is formed from pyruvate and NADH. NADH can be detected by absorbance at 340 nm, as described above for enzymatic assays of kinase activities of B-Raf, C-Raf and B-Raf mutations.
The assay reaction mixture includes 6 nM human wild type c-KIT, 1 mg/mL Poly (Glu,Tyr) (Sigma), 1 mM Phosphoenol-pyruvate, 280 μM NADH, 5 U/3.5 U (per 100 ul) Pyruvate Kinase/Lactate Dehydrogenase, 85 mM Tris, pH 7.5, 17 mM MgCl2, 0.0042% Triton® X-100, 0.005% BSA, 1% DMSO. Test compound is incubated with the reaction mixture for 0.5 hour before adding 200 μM ATP to start the reaction at 30° C.

The subject of a further test is A375 cells. Description: A375 cell proliferation assay (CellTiter-Blue/resazurin). The format is cell-based. The note with it: Homo sapiens, A-375, V600E mutation, read-out: Cell Proliferation Inhibition IC50, nM A375. As for the experimental part: A375 cells (catalog #CRL-1619) are obtained from the American Type Culture Collection (ATCC, Manassas, Va.). Briefly, cells are grown in DMEM High Glucose supplemented with 10% characterized fetal bovine serum (Invitrogen, Carlsbad, Calif.) and 1% Penicillin/Streptomycin/L-Glutamine at 37 degrees Celsius, 5% CO2, and 95% humidity. Cells are allowed to expand until reaching 70-95% confluency at which point they are subcultured or harvested for assay use. A serial dilution of test compound is dispensed into a 384-well black clear bottom plate in triplicate. Six hundred twenty-five cells are added per well in 50 μL complete growth medium in the 384-well plate. Plates are incubated for 67 hours at 37 degrees Celsius, 5% CO2, and 95% humidity. At the end of the incubation period, 10 μL of a 440 μM solution of resazurin (Sigma, St. Louis, Mo.) in PBS is added to each well of the plate and plates are incubated for an additional 5 hours at 37 degrees Celsius, 5% CO2, and 95% humidity. Plates are read on a Synergy2 reader (Biotek, Winooski, Vt.) using an excitation of 540 nm and an emission of 600 nm. Data is analyzed using Prism software (Graphpad, San Diego, Calif.) to calculate IC50 values.
The A375, HT-29, and Colo-205 cells (ATCC) harbor a V600E mutation.
(Resazurin is reduced to fluorescent resorufin, in cell work by metabolically active cells.)

Some results are limits rather than exact numbers.

T2 sequence (P10721 26-976): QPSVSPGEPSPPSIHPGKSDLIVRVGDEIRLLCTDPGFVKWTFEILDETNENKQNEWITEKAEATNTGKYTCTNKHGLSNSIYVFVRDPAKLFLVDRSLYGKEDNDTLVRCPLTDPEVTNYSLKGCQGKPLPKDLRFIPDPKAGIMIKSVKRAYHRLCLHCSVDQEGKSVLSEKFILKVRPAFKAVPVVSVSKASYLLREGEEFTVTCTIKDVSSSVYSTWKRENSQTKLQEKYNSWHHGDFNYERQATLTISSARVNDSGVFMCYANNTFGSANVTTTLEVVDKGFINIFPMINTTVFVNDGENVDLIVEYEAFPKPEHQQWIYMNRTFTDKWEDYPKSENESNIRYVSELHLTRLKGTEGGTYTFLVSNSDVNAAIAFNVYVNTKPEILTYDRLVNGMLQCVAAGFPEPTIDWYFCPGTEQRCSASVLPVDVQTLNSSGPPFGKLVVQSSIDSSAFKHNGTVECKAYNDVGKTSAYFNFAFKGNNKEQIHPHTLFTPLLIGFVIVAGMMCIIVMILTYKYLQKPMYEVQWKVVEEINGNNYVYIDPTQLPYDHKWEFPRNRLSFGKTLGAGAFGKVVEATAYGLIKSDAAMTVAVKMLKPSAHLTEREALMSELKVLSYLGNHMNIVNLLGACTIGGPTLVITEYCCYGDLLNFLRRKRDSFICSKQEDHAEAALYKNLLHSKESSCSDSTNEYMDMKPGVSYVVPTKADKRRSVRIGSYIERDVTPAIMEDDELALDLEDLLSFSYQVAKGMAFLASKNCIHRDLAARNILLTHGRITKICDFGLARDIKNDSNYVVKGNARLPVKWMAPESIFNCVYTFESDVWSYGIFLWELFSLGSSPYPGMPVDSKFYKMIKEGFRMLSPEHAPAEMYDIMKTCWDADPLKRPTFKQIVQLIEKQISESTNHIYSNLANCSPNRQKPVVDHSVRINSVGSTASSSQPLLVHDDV
T1 sequence (P04049 whole entry): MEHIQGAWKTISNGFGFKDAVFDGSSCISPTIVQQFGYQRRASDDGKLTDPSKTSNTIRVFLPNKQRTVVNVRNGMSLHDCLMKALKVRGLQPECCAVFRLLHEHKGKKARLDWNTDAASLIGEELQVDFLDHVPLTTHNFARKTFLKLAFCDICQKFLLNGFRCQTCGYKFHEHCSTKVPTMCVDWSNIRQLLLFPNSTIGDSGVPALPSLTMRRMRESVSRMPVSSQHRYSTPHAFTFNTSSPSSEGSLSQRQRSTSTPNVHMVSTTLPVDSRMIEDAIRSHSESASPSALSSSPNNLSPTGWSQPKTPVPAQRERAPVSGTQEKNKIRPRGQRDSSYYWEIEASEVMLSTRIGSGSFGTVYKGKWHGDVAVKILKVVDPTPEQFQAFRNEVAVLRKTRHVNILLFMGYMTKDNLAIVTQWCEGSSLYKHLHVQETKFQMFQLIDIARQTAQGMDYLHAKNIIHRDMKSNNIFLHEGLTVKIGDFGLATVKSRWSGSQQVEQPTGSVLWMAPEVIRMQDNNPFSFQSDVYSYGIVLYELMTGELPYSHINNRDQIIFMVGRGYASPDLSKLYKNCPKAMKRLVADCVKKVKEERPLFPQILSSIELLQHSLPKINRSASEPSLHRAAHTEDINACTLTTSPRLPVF

For the compound `CNc1ncc2cc(-c3cc(NC(=O)NCCC(C)(C)C)c(F)cc3Br)c(C)nc2n1` [Example 32, 1-(4-Bromo-2-fluoro-5-(7-methyl-2-(methylamino)pyrido[2,3-d]pyrimidin-6-yl)phenyl)-3-(3,3-dimethylbutyl)urea], the IC50 is 100 to 1000 nM in the test with HCT-116 cells, below 150 nM at human wild type C-Raf, below 150 nM against human wild type c-KIT and below 100 nM with A375 cells.

On to `CNc1ncc2cc(-c3cc(NC(=O)NCCC(C)(C)C(F)(F)F)c(F)cc3C)c(C)nc2n1` [Example 27, 1-(2-Fluoro-4-methyl-5-(7-methyl-2-(methylamino)pyrido[2,3-d]pyrimidin-6-yl)phenyl)-3-(4,4,4-trifluoro-3,3-dimethylbutyl)urea], for which the IC50 with HCT-116 cells is 100 to 1000 nM; at human wild type C-Raf, below 150 nM; on human wild type c-KIT it was below 150 nM; with A375 cells, below 100 nM.

As to `Cc1cc(F)c(NC(=O)NCCC(C)(C)C)cc1-c1cc2cnc(NCc3cn(C)cn3)nc2nc1C` [Example 22, 1-(3,3-Dimethylbutyl)-3-(2-fluoro-4-methyl-5-(7-methyl-2-(((1-methyl-1H-imidazol-4-yl)methyl)amino)pyrido[2,3-d]pyrimidin-6-yl)phenyl)urea], the IC50 was 100 to 1000 nM in the test on HCT-116 cells, below 150 nM on human wild type C-Raf, below 150 nM on human wild type c-KIT and below 100 nM with A375 cells.

For the compound `Cc1cc(F)c(NC(=O)NCCC(C)(C)F)cc1-c1cc2cnc(NC3COC3)nc2nc1C` [Example 25, 1-(3-Fluoro-3-methylbutyl)-3-(2-fluoro-4-methyl-5-(7-methyl-2-(oxetan-3-ylamino)pyrido[2,3-d]pyrimidin-6-yl)phenyl)urea], the IC50 was 100 to 1000 nM in the test on HCT-116 cells, below 150 nM on human wild type C-Raf, below 150 nM at human wild type c-KIT and below 100 nM in the test with A375 cells.

Take `CNc1ncc2cc(-c3cc(NC(=O)NC4CC(C)(C)C4)c(F)cc3F)c(C)nc2n1` [Example 7, 1-(2,4-Difluoro-5-(7-methyl-2-(methylamino)pyrido[2,3-d]pyrimidin-6-yl)phenyl)-3-(3,3-dimethylcyclobutyl)urea]: the IC50 is 100 to 1000 nM with HCT-116 cells, below 150 nM at human wild type C-Raf, below 150 nM against human wild type c-KIT and below 100 nM in the test with A375 cells.

`Cc1cc(F)c(NC(=O)NCCC(C)(C)F)cc1-c1cc2cnc(N)nc2nc1C` [Example 28, 1-(5-(2-Amino-7-methylpyrido[2,3-d]pyrimidin-6-yl)-2-fluoro-4-methylphenyl)-3-(3-fluoro-3-methylbutyl)urea]: the IC50 is 1000 to 10000 nM in the test with HCT-116 cells, below 150 nM at human wild type C-Raf, below 150 nM at human wild type c-KIT and 1000 to 10000 nM in the test on A375 cells.

Turning to `CNc1ncc2cc(-c3cc(NC(=O)NC4CC(C)(C)C4)c(F)cc3C)c(C)nc2n1` [Example 6, 1-(3,3-Dimethylcyclobutyl)-3-(2-fluoro-4-methyl-5-(7-methyl-2-(methylamino)pyrido[2,3-d]pyrimidin-6-yl)phenyl)urea], the IC50 in the test on HCT-116 cells was 100 to 1000 nM; at human wild type C-Raf, below 150 nM; at human wild type c-KIT, below 150 nM; in the test with A375 cells, below 100 nM.

On to `Cc1cc(F)c(NC(=O)NCCC(C)(C)F)cc1-c1cc2cnc(NCCO)nc2nc1C` [Example 29, 1-(3-Fluoro-3-methylbutyl)-3-(2-fluoro-5-(2-((2-hydroxyethyl)amino)-7-methylpyrido[2,3-d]pyrimidin-6-yl)-4-methylphenyl)urea], for which the IC50 is 1000 to 10000 nM in the test with HCT-116 cells, below 150 nM at human wild type C-Raf, below 150 nM at human wild type c-KIT and 1000 to 10000 nM in the test with A375 cells.

For the compound `COCCNc1ncc2cc(-c3cc(NC(=O)NCCC(C)(C)C)c(F)cc3C)c(C)nc2n1` [Example 5, 1-(3,3-Dimethylbutyl)-3-(2-fluoro-5-(2-((2-methoxyethyl)amino)-7-methylpyrido[2,3-d]pyrimidin-6-yl)-4-methylphenyl)urea], the IC50 in the test on HCT-116 cells was 100 to 1000 nM; on human wild type C-Raf, below 150 nM; at human wild type c-KIT, below 150 nM; with A375 cells, below 100 nM.
